Literature values in patent US20050209250A1, “Therapeutic combinations of atypical antipsychotics with corticotropin releasing factor antagonists” (Pfizer Inc, priority 2004, published 2005).

Columns and labels:
[1] = not given; remark: listed apart in the source

- half-life (in vivo): 6 to 7 h
- Oral bioavailability (taken with food): approximately 60%
- protein binding [1]: extensive
Compound: Cl.O.O=C1Cc2cc(CCN3CCN(c4nsc5ccccc45)CC3)c(Cl)cc2N1 [ziprasidone, 5-[2-[4-(1,2-benzisothiazol-3-yl)piperazin-1-yl]ethyl]-6-chloroindolin-2-one hydrochloride hydrate]
